We go through seven compounds from patent US9980894B2, “Cosmetic compositions comprising hyaluronan biosynthesis promoting agents” (Symrise AG, priority 2012, dated 2018).

Entries after “also recorded” stand apart in the source; their conditions may differ. Where two headings read alike, the source gives them in different places.

Experiment [1] has as its system Normal Human Epidermal Keratinocytes (NHEK). Kind of experiment: Cellular in vitro hyaluronan assay on normal human epidermal keratinocytes (hyaluronic acid ELISA). In kind it is cell-based. Conditions: for Mean hyaluronan stimulation, fold less than that of the positive control retinol: compounds at 0.25 μM versus retinol at 0.1 μM; for Effect on hyaluronan production of epidermal keratinocytes (in words): in vitro; for Mean hyaluron stimulation vs. control: 16 h. The method, then: NHEK are seeded into a 24 well plate at a concentration of 2.5×10^4 cells/well. Cells are incubated at 37° C. and 5% CO2 in keratinocyte medium until they are 70-80% confluent. Then the medium is withdrawn, cells are washed with PBS and the test compounds dissolved in keratinocyte medium are added. After incubation for 16 h in the presence of the test compounds, the culture medium is collected and hyaluronan is determined by a hyaluronic acid ELISA detection kit (Corgenix) which is performed according to the supplier instructions. The stimulation of the hyaluronan biosynthesis in the presence of the test compounds is calculated according to the following equation: Hyaluronan stimulation [%]=([…]×100)−100 with • HAcontrol=hyaluronan content in ng/ml of the medium from cells treated with control • HAtest compound=hyaluronan content in ng/ml of the medium from cells treated with test compound

A further experiment relates to B16 melanoma cell line. Conditions: cited from earlier work.
The subject of experiment [2] is Normal Human Dermal Fibroblasts (NHDF). Kind of experiment: Cellular in vitro hyaluronan assay on normal human dermal fibroblasts (hyaluronic acid ELISA). Conditions: for Mean hyaluronan stimulation compared with positive control TGF-b1: cassione 0.25 μM, [6]-paradol 0.025 μM versus TGF-b1 1 ng/ml; for Effect on hyaluronan production of dermal fibroblasts (in words): in vitro; for Mean hyaluron stimulation vs. control: 16 h. In kind it is cell-based. The method, then:
NHDF are seeded into a 24 well plate at a concentration of 1.5×10^4 cells/well. Cells are incubated at 37° C. and 5% CO2 in fibroblast medium containing 10% fetal bovine serum (FBS) until they are 70-80% confluent. Then the medium is withdrawn, cells are washed with PBS and the test compounds dissolved in fibroblast medium without FBS are added. After incubation for 16 h in the presence of the test compounds, the culture medium is collected and hyaluronan is determined by a hyaluronic acid ELISA detection kit (Corgenix) which is performed according to the supplier instructions. The stimulation of the hyaluronan biosynthesis in the presence of the test compounds is calculated according to the following equation: Hyaluronan stimulation [%]=([…]×100)−100 with • HAcontrol=hyaluronan content in ng/ml of the medium from cells treated with control • HAtest compound=hyaluronan content in ng/ml of the medium from cells treated with test compound

In the next experiment the test system is ex vivo human skin. Kind of experiment: Hyaluronan assay on ex vivo human skin (Alcain blue staining, image analysis). In kind it is cell-based. From the text: Human skin obtained from plastic surgery is cut into pieces of approximately 7×3 mm (diameter×thickness). 6 skin samples are used for each treatment. The skin samples are placed on a cotton pad soaked with culture medium (modified Williams'E medium). Control and hydrodispersion gels (as described in more detail below) without (=placebo) and with the test compound, respectively, are applied topically on day 0 and the application is renewed on day 1. On day 2, skin samples are fixed, histological sections are prepared and subsequent histochemically stained by Alcain blue. After that, pictures are taken from each section and dermal and epidermal hyaluronan is quantified by image analysis of a selected region of interest. To do so, the histochemical staining is divided in three different color channels with an algorithm specific for Alcain blue staining and the distribution and intensity of the blue colour channel which is specific for hyaluronan is analysed. Hyaluronan stimulation [%]=([…]×100)−100 with • HAcontrol=hyaluronan score of the skin sample treated with control • HAtest compound=hyaluron score of the skin sample treated with test compound
The hydrodispersion gels used had the composition as set out in Table 4: […]

[3] abbreviates: listed as compound of formula IV.
The mark [4] stands for this setting: 0.0001% [6]-paradol containing gel versus placebo gel.
Where [5] appears, read: 0.0001 % in hydrodispersion gel, topical on day 0 and day 1, analysed day 2.

As for `CC(=O)CCc1ccc2c(c1)OCO2` [Cassione, 4-(3,4-methylendioxyphenyl)-2-butanone], in experiment [1], the “Mean hyaluronan stimulation, fold less than that of the positive control retinol” value worked out at 1.9 fold. Also, in experiment [1], the “Effect on hyaluronan production of epidermal keratinocytes (in words)” value (shortened to “Effect … of epidermal keratinocytes (in words)”) is recorded as “enhance the hyaluronan production; also recorded: potently enhance”. Moreover, the “Mean hyaluron stimulation vs. control” value in experiment [1] (test concentration 0.25 μM) is 37.0 ± 8.0%; in experiment [2] (test concentration 0.25 μM), 41.0 ± 6.0%. The “inhibition (skin lightening, in vitro efficacy)” value was 15% with B16 melanoma cell line (26 μM (5 μg/ml)) and 87% in the experiment on B16 melanoma cell line (520 μM (100 μg/ml)). The “Mean hyaluronan stimulation compared with positive control TGF-b1” value in experiment [2] was “comparable”. Moreover, in experiment [2], the “Effect on hyaluronan production of dermal fibroblasts (in words)” value (from here on “Effect … of dermal fibroblasts (in words)”) is on record as “enhance the hyaluronan production; also recorded: potently enhance”.

Consider `COc1cc(CCC(=O)c2ccc(O)cc2)ccc1O` [Compound of formula IV, 3-(4-Hydroxy-3-methoxyphenyl)-1-(4-hydroxyphenyl)-1-propanone], for which the “Mean hyaluronan stimulation, fold less than that of the positive control retinol” value in experiment [1] amounted to 1.4 fold. Moreover, the “Effect … of epidermal keratinocytes (in words)” value in experiment [1] (setting [3]) is recorded as “enhance the hyaluronan production”; in experiment [1] (listed as formula IV), “powerfully upregulates HA synthesis”. For the same compound, the results for the “Mean hyaluron stimulation vs. control” value in experiment [1] (test concentration 0.25 μM) and in experiment [2] (test concentration 0.25 μM) were 50.5 ± 26.5% and −5.5 ± 2.5%, respectively. Moreover, the “Effect … of dermal fibroblasts (in words)” value is recorded as “no stimulatory activity” in experiment [2] (setting [3]) and “no direct stimulating effect on dermal fibroblasts” in experiment [2] (listed as formula IV).

In the case of `CC1=C(/C=C/C(C)=C/C=C/C(C)=C/C(=O)O)C(C)(C)CCC1` [Retinoic acid, reference compound], the “Mean hyaluron stimulation vs. control” value is recorded as 116.1 ± 37.3% in experiment [1] (test concentration 0.1 μM) and −13.0 ± 18.0% in experiment [2] (test concentration 0.1 μM).

Regarding `CC1=C(/C=C/C(C)=C/C=C/C(C)=C/CO)C(C)(C)CCC1` [Retinol, reference compound], the “Mean hyaluron stimulation vs. control” value is given as 70.8 ± 33.3% in experiment [1] (test concentration 0.1 μM) and 2.0% in experiment [2] (test concentration 0.1 μM). Further, the “Effect … of dermal fibroblasts (in words)” value in experiment [2] is recorded as “no stimulatory activity”.

As for `COc1cc(CCC(C)=O)ccc1O` [Zingerone, 4-(4-hydroxy-3-methoxyphenyl)-2-butanone], in experiment [1], the “Mean hyaluronan stimulation, fold less than that of the positive control retinol” value is on record as 1.6 fold and the “Effect … of epidermal keratinocytes (in words)” value is given as “enhance the hyaluronan production; also recorded: more pronounced effect on epidermal keratinocytes”. Also, the “Mean hyaluron stimulation vs. control” value in experiment [1] (test concentration 0.25 μM) amounted to 45.0 ± 24.7%. In experiment [2], the “Effect … of dermal fibroblasts (in words)” value was “enhance the hyaluronan production; also recorded: increases HA biosynthesis”. For the same compound, in experiment [2] (test concentration 0.25 μM), the “Mean hyaluron stimulation vs. control” value is recorded as 15.0 ± 5.3%.

`CCCCCCCC(=O)CCc1ccc(O)c(OC)c1` [[6]-Paradol, Heptyl 4-hydroxy-3-methoxyphenethyl ketone]: the “Effect … of epidermal keratinocytes (in words)” value in experiment [1] is reported as “no stimulatory activity; also recorded: without any direct stimulating effect on epidermal keratinocytes”. Also, the “Mean hyaluron stimulation vs. control” value in experiment [1] (test concentration 0.025 μM) was −3.0 ± 3.0%. For the same compound, in the experiment with ex vivo human skin (setting [4]), the “Mean HA stimulation versus placebo, dermal HA” value amounted to 250% and the “Mean HA stimulation versus placebo, epidermal HA” value came to 124%. Further, in the experiment on ex vivo human skin (setting [5]), the “Mean hyaluronan stimulation vs. control [%] Dermal” value was 124% and the “Mean hyaluronan stimulation vs. control [%] Epidermal” value stood at 51%. Besides, the “Effect on dermal and epidermal hyaluronan level of ex vivo human skin (in words)” value with ex vivo human skin (0.0001%, 2 days of topical treatment) is recorded as “significantly stimulates”. In addition, in experiment [2], the “Mean hyaluronan stimulation compared with positive control TGF-b1” value is reported as “comparable” and the “Effect … of dermal fibroblasts (in words)” value is “enhance the hyaluronan production; also recorded: potently stimulates”. Further, the “Mean hyaluron stimulation vs. control” value in experiment [2] (test concentration 0.025 μM) stood at 38.0 ± 9.0%.

Consider “TGF-b1: Transforming growth factor (TGF)-beta1, positive control known to increase HA synthesis in dermal fibroblasts”, for which the “Effect … of epidermal keratinocytes (in words)” value in experiment [1] is recorded as “no stimulatory activity”. In addition, the entries for the “Mean hyaluron stimulation vs. control” value in experiment [1] (test concentration 1 ng/ml) and in experiment [2] (test concentration 1 ng/ml) were −31.0% and 39.7 ± 13.9%, respectively.
